Patent publication EP0639585A1, “Elastase inhibitor” (BANYU PHARMACEUTICAL CO., LTD., priority 1993, dated 1995)

Target: T1, human leukocyte elastase (Homo sapiens, UniProt P08246)
T1 sequence (P08246 30-267): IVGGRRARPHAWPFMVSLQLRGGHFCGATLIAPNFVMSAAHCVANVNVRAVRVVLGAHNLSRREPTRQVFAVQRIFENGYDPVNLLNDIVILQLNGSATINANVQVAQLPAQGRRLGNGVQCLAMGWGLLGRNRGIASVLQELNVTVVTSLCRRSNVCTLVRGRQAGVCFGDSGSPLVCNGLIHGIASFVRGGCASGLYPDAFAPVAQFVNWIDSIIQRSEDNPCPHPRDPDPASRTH
Test: Elastase inhibition activity (fluorogenic substrate N-methoxy succinyl-L-alanyl-L-alanyl-L-prolyl-L-valine 4-methylcoumaryl-7-amide)
Type: biochemical
Details: 0.2M tris buffer pH8.5, 1M sodium chloride, 40µM substrate, 37° C, 20 minutes incubation; read-out: IC₅₀
Experimental: The inhibition activities to human leukocyte elastase were determined as follows: Each 1µl of DMSO solution of the compound and DMSO (for reference) were added to each 250µl of 0.2M tris buffer solutions (pH8.5) containing 40µM N-methoxy succinyl-L-alanyl-L-alanyl-L-prolyl-L-valine 4-methylcoumaryl-7-amide and 1M sodium chloride, and the mixtures were pre-incubated at 37° C for three minutes. Then 50µl of 0.2M tris buffer solutions (pH8.5) containing 0.2µg/ml human leukocyte elastase were added to the mixtures and the mixtures were incubated at 37° C for 20 minutes. Each 1ml of 2M acetic acid aqueous solutions were added to the mixture and the reactions were stopped and then fluorescences of the supernatants were measured and the activities were calculated. As the results, IC₅₀ values were as follows: the compound 6 = 0.78µM, the compound 4 = 6.32µM, the compound 1 = 8.48µM and the compound 5 = 9.94µM.

`CCC[C@H](NC(=O)[C@@H]1CCCN1C(=O)[C@H](CC(C)C)NC(=O)OCc1ccccc1)C(=O)C(=O)Cc1ccccc1` [Compound 6, (4S)-4-(N-benzyloxycarbonyl-L-leucyl-L-prolyl)amino-1-phenyl-2,3-heptanedione] showed an IC50 of 0.78 µM.

For `CCC[C@H](NC(=O)[C@@H]1CCCN1C(=O)[C@H](CC(C)C)NC(=O)OCc1ccccc1)C(=O)C(=O)CCC1CCCCC1` [Compound 5, (5S)-5-(N-benzyloxycarbonyl-L-leucyl-L-prolyl)amino-1-cyclohexyl-3,4-octanedione], the IC50 was 9.94 µM.

`CCC[C@H](NC(=O)[C@@H]1CCCN1C(=O)[C@H](CC(C)C)NC(C)=O)C(=O)C(=O)Cc1ccccc1` [Compound 1, (4S)-4-(N-acetyl-L-leucyl-L-prolyl)amino-1-phenyl-2,3-heptanedione] was tested, and the IC50 was 8.48 µM.

In the case of `CCC[C@H](NC(=O)[C@@H]1CCCN1C(=O)[C@H](CC(C)C)NC(=O)OCc1ccccc1)C(=O)C(=O)CC1CCCCC1` [Compound 4, (4S)-4-(N-benzyloxycarbonyl-L-leucyl-L-prolyl)amino-1-cyclohexyl-2,3-heptanedione], the IC50 is reported as 6.32 µM.
